Experimental data reported in patent publication US20260108527A1, “POLO LIKE KINASE 4 INHIBITORS” (ORIC Pharmaceuticals, Inc., priority 2022, published 2026).
pIC50: −log10 of the molar value.

What was measured:
[1] = biological target: T1, human recombinant Aurora A (Homo sapiens, UniProt O14965); test: Aurora A Kinase Biochemical Assay (ADP-Glo); conditions: selectivity ratio; Aurora A 2.5 nM, 20 μM ATP
T1 construct: purchased ThermoFisher PR5935A
T1 sequence (O14965 1-403): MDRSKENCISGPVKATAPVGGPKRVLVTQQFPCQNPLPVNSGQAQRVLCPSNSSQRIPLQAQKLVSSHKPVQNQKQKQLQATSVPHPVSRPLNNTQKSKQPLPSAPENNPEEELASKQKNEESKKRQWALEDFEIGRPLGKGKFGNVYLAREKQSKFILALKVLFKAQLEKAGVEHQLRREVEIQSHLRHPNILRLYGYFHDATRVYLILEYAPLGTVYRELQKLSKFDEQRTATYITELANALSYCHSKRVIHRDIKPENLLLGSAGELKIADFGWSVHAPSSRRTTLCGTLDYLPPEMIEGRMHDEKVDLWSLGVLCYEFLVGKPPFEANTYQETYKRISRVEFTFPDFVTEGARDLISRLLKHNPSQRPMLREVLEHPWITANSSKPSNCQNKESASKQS
Experimental: Activity of human recombinant Aurora A (ThermoFisher, cat #PR5935A) was measured by quantification of adenosine diphosphate (ADP) using the ADP-Glo Kinase Assay Kit (Promega, cat #V9102). Test compounds were solubilized in dimethyl sulfoxide (DMSO) and dispensed into 384-well white polystyrene nonbinding plates (Greiner, cat #781094) using the Echo acoustic dispenser (Labcyte Inc.) in a 11-point 3-fold titration in duplicates. 5 μL of 5.0 nM Aurora A in assay buffer (50 mM HEPES, pH 7.5, 0.01% Brij-35, 0.01% BSA, 10 mM MgCl2, 1 mM EGTA, 1 mM DTT) was added to the plates. Test compounds and Aurora A were incubated for 15 minutes at room temperature (RT). Then 5 μL of a 40 μM adenosine triphosphate (ATP) (Promega, cat #V915B) and 9.3 μM Myelin Basic Protein (MBP) (SignalChem, cat #M42-51N) substrate solution in assay buffer was added and the reaction mixture was incubated for 2 hours at RT. The final concentration of Aurora A, ATP and MBP in the reactions were 2.5 nM, 20 μM and 4.7 μM, respectively. Reactions were stopped and the remaining ATP depleted by adding 10 μL of ADP-Glo reagent (Promega, cat #V912B) and incubating for 40 minutes at RT. The simultaneous conversion of the remaining ADP to ATP and measurement of the newly synthesized ATP was achieved by addition of 20 μL Kinase Detection reagent (Promega, cat #V914B), incubation for 30 min at RT, and luminescence detection using the EnVision plate reader (PerkinElmer). Reactions lacking Aurora A were used as 100% inhibition controls. Reactions containing DMSO alone were used as 0% inhibition controls. The IC50 values reported in Table 2 were determined using four parameter non-linear regression curve fit.

human recombinant PLK4 = biological target: T2, human recombinant PLK4 (Homo sapiens, UniProt O00444); test: PLK4 Biochemical Assay (ADP-Glo); conditions: 0.5 nM PLK4, 8.0 μM ATP, 4.7 μM MBP, 6 hours at RT
T2 construct: purchased ThermoFisher PV6396
T2 sequence (O00444 1-970): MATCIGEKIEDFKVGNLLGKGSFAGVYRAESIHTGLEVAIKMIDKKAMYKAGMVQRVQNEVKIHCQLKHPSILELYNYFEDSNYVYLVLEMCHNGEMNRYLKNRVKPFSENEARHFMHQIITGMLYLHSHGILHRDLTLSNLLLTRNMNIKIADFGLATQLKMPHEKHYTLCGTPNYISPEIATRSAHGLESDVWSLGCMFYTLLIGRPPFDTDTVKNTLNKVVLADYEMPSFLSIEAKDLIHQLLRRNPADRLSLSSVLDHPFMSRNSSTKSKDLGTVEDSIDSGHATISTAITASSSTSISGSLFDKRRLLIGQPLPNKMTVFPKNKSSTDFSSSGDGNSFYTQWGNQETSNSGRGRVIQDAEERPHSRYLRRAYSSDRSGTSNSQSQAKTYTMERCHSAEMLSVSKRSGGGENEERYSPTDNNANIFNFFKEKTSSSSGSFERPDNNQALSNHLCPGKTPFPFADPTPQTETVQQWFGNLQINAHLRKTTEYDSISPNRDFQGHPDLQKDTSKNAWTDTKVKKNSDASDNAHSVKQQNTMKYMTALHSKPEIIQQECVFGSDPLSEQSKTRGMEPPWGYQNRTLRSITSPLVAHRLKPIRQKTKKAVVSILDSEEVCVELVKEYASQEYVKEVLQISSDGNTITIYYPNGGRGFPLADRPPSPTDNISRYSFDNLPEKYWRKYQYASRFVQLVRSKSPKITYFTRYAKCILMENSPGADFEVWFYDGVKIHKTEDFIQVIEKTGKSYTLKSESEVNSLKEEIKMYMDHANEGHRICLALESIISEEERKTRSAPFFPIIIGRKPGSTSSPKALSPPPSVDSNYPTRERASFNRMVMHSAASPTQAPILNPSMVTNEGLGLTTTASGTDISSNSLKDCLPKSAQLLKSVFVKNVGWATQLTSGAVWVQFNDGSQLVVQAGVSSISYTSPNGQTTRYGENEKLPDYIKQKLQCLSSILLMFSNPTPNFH
Experimental: Activity of human recombinant PLK4 (ThermoFisher, cat #PV6396) was measured by quantification of adenosine diphosphate (ADP) using the ADP-Glo Kinase Assay Kit (Promega, cat #V9102). […] 5 μL of 1.0 nM PLK4 protein in assay buffer (50 mM HEPES, pH 7.5, 0.01% Brij-35, 0.01% BSA, 10 mM MgCl2, 1 mM EGTA, 1 mM DTT) was added to the plates. Test compounds and PLK4 were incubated for 15 minutes at room temperature (RT). […] Reactions were stopped and the remaining ATP depleted by adding 10 μL of ADP-Glo reagent (Promega, cat #V912B) and incubating for 40 minutes at RT. The simultaneous conversion of the remaining ADP to ATP and measurement of the newly synthesized ATP was achieved by addition of 20 μL Kinase Detection reagent (Promega, cat #V914B), incubation for 30 min at RT, and luminescence detection using the EnVision plate reader (PerkinElmer). […] The IC50 values reported in Table 2 were determined using four parameter non-linear regression curve fit.

| [Aurora A IC50 (nM)]/[PLK4 IC50 (nM)] [1] | pIC50 (human recombinant PLK4) | Compound |
| --- | --- | --- |
| 630 | 8.51 | CCOc1cc2c(ccc[n+]2[O-])cc1Nc1n[nH]c2cc([C@@H]3C[C@@]34C(=O)Nc3ccc(OC)cc34)ccc12 [Example 12, 7-ethoxy-6-((6-((1R,2S)-5′-methoxy-2′-oxospiro[cyclopropane-1,3′-indolin]-2-yl)-1H-indazol-3-yl)amino)quinoline 1-oxide] |
| 27382.2563 | 8.74 | CCOc1cc2ccccc2nc1Nc1n[nH]c2cc([C@@H]3C[C@@]34C(=O)Nc3ccc(OC)cc34)ccc12 [Example 8, (1R,2S)-2-{3-[(3-ethoxyquinolin-2-yl)amino]-1H-indazol-6-yl}-5′-methoxyspiro[cyclopropane-1,3′-indol]-2′(1′H)-one] |
| 1496.6799 | 9.12 | CCOc1ccc(-c2nccs2)cc1Nc1n[nH]c2cc([C@@H]3C[C@@]34C(=O)Nc3ccc(OC)cc34)ccc12 [Example 33, (1R,2S)-2-{3-[2-ethoxy-5-(1,3-thiazol-2-yl)anilino]-1H-indazol-6-yl}-5′-methoxyspiro[cyclopropane-1,3′-indol]-2′(1′H)-one] |
| 538.2697 | 9.17 | COc1ccc2c(c1)[C@]1(C[C@H]1c1ccc3c(Nc4nc(-c5ncco5)ccc4OC)n[nH]c3c1)C(=O)N2 [Example 4, (1R,2S)-5′-methoxy-2-(3-{[3-methoxy-6-(1,3-oxazol-2-yl)pyridin-2-yl]amino}-1H-indazol-6-yl)spiro[cyclopropane-1,3′-indol]-2′(1′H)-one] |
| 2756.5515 | 9.09 | CCOc1cc(-n2cncn2)cnc1Nc1n[nH]c2cc([C@@H]3C[C@@]34C(=O)Nc3ccc(OC)cc34)ccc12 [Example 38, (1R,2S)-2-(3-{[3-ethoxy-5-(1H-1,2,4-triazol-1-yl)pyridin-2-yl]amino}-1H-indazol-6-yl)-5′-methoxyspiro[cyclopropane-1,3′-indol]-2′(1′H)-one] |
| 325.6348 | 9.08 | COc1ccc2c(c1)[C@]1(C[C@H]1c1ccc3c(Nc4cc(-c5ccon5)ccc4OC)n[nH]c3c1)C(=O)N2 [Example 32, (1R,2S)-5′-methoxy-2-{3-[2-methoxy-5-(1,2-oxazol-3-yl)anilino]-1H-indazol-6-yl}spiro[cyclopropane-1,3′-indol]-2′(1′H)-one] |
| 1647.6978 | 8.71 | COc1ccc2c(c1)[C@]1(C[C@H]1c1ccc3c(Nc4cc(-c5cnn(CC(F)F)c5)ccc4OC)n[nH]c3c1)C(=O)N2 [Example 39, (1R,2S)-2-(3-{5-[1-(2,2-difluoroethyl)-1H-pyrazol-4-yl]-2-methoxyanilino}-1H-indazol-6-yl)-5′-methoxyspiro[cyclopropane-1,3′-indol]-2′(1′H)-one] |
| 743.0555 | 9.59 | COc1ccc2c(c1)[C@]1(C[C@H]1c1ccc3c(Nc4nc(-c5cnn(C)c5)ncc4OC)n[nH]c3c1)C(=O)N2 [Example 31, (1R,2S)-5′-methoxy-2-(3-{[5-methoxy-2-(1-methyl-1H-pyrazol-4-yl)pyrimidin-4-yl]amino}-1H-indazol-6-yl)spiro[cyclopropane-1,3′-indol]-2′(1′H)-one] |
| 288.4 | 9.55 | COc1ccc2c(c1)[C@]1(C[C@H]1c1ccc3c(Nc4nc(-c5cnco5)ncc4OC)n[nH]c3c1)C(=O)N2 [Example 40, (1R,2S)-5′-methoxy-2-(3-{[5-methoxy-2-(1,3-oxazol-5-yl)pyrimidin-4-yl]amino}-1H-indazol-6-yl)spiro[cyclopropane-1,3′-indol]-2′(1′H)-one] |
| 842.4019 | 9.39 | COc1ccc2c(c1)[C@]1(C[C@H]1c1ccc3c(Nc4nc(-c5cnn(C)c5)cnc4OC)n[nH]c3c1)C(=O)N2 [Example 24, (1R,2S)-5′-methoxy-2-(3-{[3-methoxy-6-(1-methyl-1H-pyrazol-4-yl)pyrazin-2-yl]amino}-1H-indazol-6-yl)spiro[cyclopropane-1,3′-indol]-2′(1′H)-one] |
| 170 | 8.55 | COc1ccc2c(c1)[C@]1(C[C@H]1c1ccc3c(Nc4nc(N(C)C)ncc4OC)n[nH]c3c1)C(=O)N2 [Example 20, (1R,2S)-2-(3-{[2-(dimethylamino)-5-methoxypyrimidin-4-yl]amino}-1H-indazol-6-yl)-5′-methoxyspiro[cyclopropane-1,3′-indol]-2′(1′H)-one] |
| 727.2189 | 9.47 | CCOc1ncc(-c2nccs2)nc1Nc1n[nH]c2cc([C@@H]3C[C@@]34C(=O)Nc3ccc(OC)cc34)ccc12 [Example 35, (1R,2S)-2-(3-{[3-ethoxy-6-(1,3-thiazol-2-yl)pyrazin-2-yl]amino}-1H-indazol-6-yl)-5′-methoxyspiro[cyclopropane-1,3′-indol]-2′(1′H)-one] |
| 360.5487 | 8.98 | COc1ccc2c(c1)[C@]1(C[C@H]1c1ccc3c(Nc4cc(-c5cnn(C)c5)ncc4OC)n[nH]c3c1)C(=O)N2 [Example 27, (1R,2S)-5′-methoxy-2-(3-{[5-methoxy-2-(1-methyl-1H-pyrazol-4-yl)pyridin-4-yl]amino}-1H-indazol-6-yl)spiro[cyclopropane-1,3′-indol]-2′(1′H)-one] |
| 1900 | 8.59 | COc1ccc2c(c1)[C@]1(C[C@H]1c1ccc3c(Nc4cc(-c5nnn(C)n5)ccc4OC)n[nH]c3c1)C(=O)N2 [Example 21, (1R,2S)-5′-methoxy-2-{3-[2-methoxy-5-(2-methyl-2H-tetrazol-5-yl)anilino]-1H-indazol-6-yl}spiro[cyclopropane-1,3′-indol]-2′(1′H)-one] |
| 4711.9113 | 9.14 | CCOc1ncc(-c2nccs2)cc1Nc1n[nH]c2cc([C@@H]3C[C@@]34C(=O)Nc3ccc(OC)cc34)ccc12 [Example 41, (1R,2S)-2-(3-{[2-ethoxy-5-(1,3-thiazol-2-yl)pyridin-3-yl]amino}-1H-indazol-6-yl)-5′-methoxyspiro[cyclopropane-1,3′-indol]-2′(1′H)-one] |
